According to article PMC6568410, “A scorpion venom peptide derivative BmKn‒22 with potent antibiofilm activity against Pseudomonas aeruginosa” (PLoS ONE, 2019):
Where no end group is shown, it is not given here.

System: sheep red blood cells
Experiment: Hemolytic assay
Assay type: cell-based
Conditions: 800 µM, 37 °C, 1 h
Experimental: Hemolytic activity of the test peptides was assayed according to a protocol described previously. Suspension of 2% sheep red blood cells (100 μL) prepared in PBS pH 7.4 was incubated with 100 μL of the test peptides (800 μM, final concentration). After incubation at 37 ^OC for 1 h, the suspension was centrifuged at 1,000 g for 5 min followed by transferring 100 μL of the supernatant to 96 well-microtiter plate (Nunc). Released hemoglobin was then determined by measuring an absorbance at 405 nm using a microplate reader (BioTek Synergy HT). Positive and negative controls in this assay were 1% Triton X-100 and PBS pH 7.4, respectively. Hemolysis (%) was calculated using an equation: (OD405 nm peptide ‒ OD405 nm PBS pH 7.4)/(OD405 nm 1% Triton X-100 ‒ OD405 nm PBS pH 7.4) × 100.

FIGAIARLLSK [BmKn-22]
lysis of red blood cells: less or no hemolysis
